Reference: ChEMBL document CHEMBL4665777, “Bioactive Alkaloids from the Actinomycete Actinoalloteichus sp. ZZ1866” (J Nat Prod, 2020)
Active and inactive are the calls of the source. The rule behind the calls is not given here.

What was measured:
Escherichia coli = assay: Antimicrobial activity against Escherichia coli at 50 ug/ml after 12 hrs by microbroth dilution method; format: functional, organism-based
U-87 MG [1] = assay: Antiproliferative activities against human U-87 MG cells by SRB assay; format: functional, cell-based, U-87MG ATCC
Staphylococcus aureus = assay: Antimicrobial activity against methicillin-resistant Staphylococcus aureus at 50 ug/ml after 12 hrs by microbroth dilution method; format: functional, organism-based
U-251 [2] = assay: Antiproliferative activities against human U-251 cells by SRB assay; format: functional, cell-based
Candida albicans = assay: Antimicrobial activity against Candida albicans at 50 ug/ml after 12 hrs by microbroth dilution method; format: functional, organism-based
U-87 MG [3] = assay: Antiproliferative activities against human U-87 MG cells at 50 uM by SRB assay; format: functional, cell-based; conditions: u-87mg atcc
U-251 [4] = assay: Antiproliferative activities against human U-251 cells at 50 uM by SRB assay; format: functional, cell-based

In the case of `COc1cc(/C=N/OCCc2ccccc2)nc(-c2ccccn2)c1`, the Activity (Escherichia coli) is reported as “inactive”, the IC50 (U-87 MG [1]) is reported as 6.5 µM and the Activity (Staphylococcus aureus) is reported as “inactive”. The IC50 (U-251 [2]) was 2 µM and the Activity (Candida albicans) was “inactive”.
With `CC(=O)c1nc(C(=O)NCCc2ccccc2)cc2c1[nH]c1ccccc12` the Activity (Escherichia coli) was “inactive”, the IC50 (U-87 MG [1]) was 13 µM and the Activity (Staphylococcus aureus) was “inactive”. For the same compound, the IC50 (U-251 [2]) was 12 µM and the Activity (Candida albicans) was “inactive”.
With `CO[C@@]1(C)N(CCc2ccccc2)C(=O)c2cc3c4ccccc4n(C)c3c(=O)n21` the Activity (Escherichia coli) was “inactive”, the IC50 (U-87 MG [1]) was 8.9 µM and the Activity (Staphylococcus aureus) was “inactive”. For the same compound, the IC50 (U-251 [2]) was 27 µM and the Activity (Candida albicans) was “inactive”.
With `CC(=O)NC[C@H](OC(=O)c1cc2c3ccccc3n(C)c2c(=O)[nH]1)c1ccccc1` the Activity (Escherichia coli) was “inactive”, the IC50 (U-87 MG [1]) was 19 µM and the Activity (Staphylococcus aureus) was “inactive”. The IC50 (U-251 [2]) was 15 µM and the Activity (Candida albicans) was “inactive”.
`CC(=O)c1nc(C(=O)NC[C@H](O)c2ccccc2)cc2c3ccccc3n(C)c12` was tested, and the Activity (Escherichia coli) was “inactive”, the IC50 (U-87 MG [3]) was “Not Active” and the IC50 (U-251 [4]) was “Not Active”. For the same compound, the Activity (Staphylococcus aureus) was “inactive” and the Activity (Candida albicans) was “inactive”.
For `CO[C@@]1(C)N(/C=C/c2ccccc2)C(=O)c2cc3c4ccccc4n(C)c3c(=O)n21`, the Activity (Escherichia coli) was “inactive”, the IC50 (U-87 MG [1]) was 4.5 µM and the Activity (Staphylococcus aureus) was “inactive”. The IC50 (U-251 [2]) was 17 µM and the Activity (Candida albicans) was “inactive”.
For `CO[C@@]1(C)N(/C=C/c2ccccc2)C(=O)C2=C[C@@]3(C(=O)N(C)c4ccccc43)C(=O)N21`, the Activity (Escherichia coli) was “inactive”, the IC50 (U-87 MG [1]) was 7.2 µM and the Activity (Staphylococcus aureus) was “inactive”. The IC50 (U-251 [2]) was 5.8 µM and the Activity (Candida albicans) was “inactive”.
For `CO[C@@]1(C)N(/C=C/c2ccccc2)C(=O)c2cc3c([nH]c4ccccc43)c(=O)n21`, the Activity (Escherichia coli) was “inactive”, the IC50 (U-87 MG [1]) was 43 µM and the Activity (Staphylococcus aureus) was “inactive”. The IC50 (U-251 [2]) was 36 µM and the Activity (Candida albicans) was “inactive”.
In the case of `Cn1c2ccccc2c2cc3n(c(=O)c21)[C@@](C)(O)N(CCc1ccccc1)C3=O`, the Activity (Escherichia coli) is reported as “inactive”, the IC50 (U-87 MG [3]) is reported as “Not Active” and the IC50 (U-251 [4]) is reported as “Not Active”. The Activity (Staphylococcus aureus) was “inactive” and the Activity (Candida albicans) was “inactive”.
`CCCCCc1[nH]c(=O)c2cnccc2c1C` was tested, and the Activity (Escherichia coli) was “inactive”, the IC50 (U-87 MG [3]) was “Not Active” and the IC50 (U-251 [4]) was “Not Active”. The Activity (Staphylococcus aureus) was “inactive” and the Activity (Candida albicans) was “inactive”.
For `O=C(NCCc1ccccc1)c1cc2c([nH]c3ccccc32)c(=O)[nH]1`, the Activity (Escherichia coli) was “inactive”, the IC50 (U-87 MG [3]) was “Not Active” and the IC50 (U-251 [4]) was “Not Active”. The Activity (Staphylococcus aureus) was “inactive” and the Activity (Candida albicans) was “inactive”.
`CO[C@@]1(C)N(C[C@@H](O)c2ccccc2)C(=O)c2cc3c4ccccc4n(C)c3c(=O)n21` was tested, and the Activity (Escherichia coli) was “inactive”, the IC50 (U-87 MG [1]) was 29 µM and the Activity (Staphylococcus aureus) was “inactive”. The IC50 (U-251 [2]) was 36 µM and the Activity (Candida albicans) was “inactive”.
For `Cn1c2ccccc2c2cc(C(=O)NCCc3ccccc3)[nH]c(=O)c21`, the Activity (Escherichia coli) was “inactive”, the IC50 (U-87 MG [1]) was 11 µM and the Activity (Staphylococcus aureus) was “inactive”. The IC50 (U-251 [2]) was 13 µM and the Activity (Candida albicans) was “inactive”.
In the case of `CO[C@@]1(C)N(C[C@H](O)c2ccccc2)C(=O)c2cc3c4ccccc4n(C)c3c(=O)n21`, the Activity (Escherichia coli) is reported as “inactive”, the IC50 (U-87 MG [1]) is reported as 17 µM and the Activity (Staphylococcus aureus) is reported as “inactive”. For the same compound, the IC50 (U-251 [2]) was 19 µM and the Activity (Candida albicans) was “inactive”.
For `CO[C@@]1(C)N(/C=C\c2ccccc2)C(=O)c2cc3c4ccccc4n(C)c3c(=O)n21`, the Activity (Escherichia coli) was “inactive”, the IC50 (U-87 MG [1]) was 2.3 µM and the Activity (Staphylococcus aureus) was “inactive”. The IC50 (U-251 [2]) was 12 µM and the Activity (Candida albicans) was “inactive”.
For `COc1cccc2c1C(=O)c1c(O)c3c(c(O)c1C2=O)C[C@@](O)(C(=O)CO)C[C@@H]3O[C@H]1C[C@H](N)[C@H](O)[C@H](C)O1` [DOXORUBICIN], the IC50 (U-87 MG [1]) was 0.6 µM and the IC50 (U-251 [2]) was 3.9 µM.
`CO[C@@]1(C)N(/C=C\c2ccccc2)C(=O)c2cc3c([nH]c4ccccc43)c(=O)n21` was tested, and the Activity (Escherichia coli) was “inactive”, the IC50 (U-87 MG [3]) was “Not Active” and the IC50 (U-251 [4]) was “Not Active”. For the same compound, the Activity (Staphylococcus aureus) was “inactive” and the Activity (Candida albicans) was “inactive”.
With `CC(=O)c1nc(C(=O)NCCc2ccccc2)cc2c3ccccc3n(C)c12` the Activity (Escherichia coli) was “inactive”, the IC50 (U-87 MG [1]) was 7.4 µM and the Activity (Staphylococcus aureus) was “inactive”. For the same compound, the IC50 (U-251 [2]) was 12 µM and the Activity (Candida albicans) was “inactive”.
